# US20120034613A1, “Apparatus and Method for Testing Relationships Between Gene Expression and Physical Appearance of Skin” (NSE Products, Inc., priority 2010, published 2012)
# System: EpidermFT™ Skin Model (EFT-400) full thickness skin cultures
# Experiment: Affymetrix GeneChip HG U133 Plus 2.0 microarray global gene expression, agent-exposed vs untreated skin cultures
# Format: cell-based, human
# Details: 0.5%, 24 hr
smiles,measurement,setting,value
"OCc1ccccc1O[C@@H]1O[C@H](CO)[C@@H](O)[C@H](O)[C@H]1O [Salicin, 2-(Hydroxymethyl)phenyl β-D-glucospyranoside]",Direction CYR61,probe 210764_s_at,up
same,Fold change CYR61,probe 210764_s_at,2.692
same,Direction PLAUR,probe 210845_s_at,up
same,Fold change PLAUR,probe 210845_s_at,2.249
same,Direction HGF,probe 210998_s_at,up
same,Fold change HGF,probe 210998_s_at,4.35
same,Direction SERPINB4,probe 211906_s_at,down
same,Fold change SERPINB4,probe 211906_s_at,5.613
same,Direction CAT,probe 211922_s_at,down
same,Fold change CAT,probe 211922_s_at,2.095
same,Direction IGFBP5,probe 211958_at,up
same,Fold change IGFBP5,probe 211958_at,2.712
same,Direction COL4A1,probe 211981_at,up
same,Fold change COL4A1,probe 211981_at,2.121
same,Direction RHOB,probe 212099_at,up
same,Fold change RHOB,probe 212099_at,3.764
same,Direction SGPL1,probe 212321_at,down
same,Fold change SGPL1,probe 212321_at,2.406
same,Direction SULF1,probe 212353_at,up
same,Fold change SULF1,probe 212353_at,4.424
same,Direction LCN2,probe 212531_at,down
same,Fold change LCN2,probe 212531_at,12.01
same,Direction PRKCA,probe 213093_at,up
same,Fold change PRKCA,probe 213093_at,2.125
same,Direction STARD13,probe 213103_at,up
same,Fold change STARD13,probe 213103_at,2.844
same,Direction HSPA6,probe 213418_at,up
same,Fold change HSPA6,probe 213418_at,14.24
same,Direction MFAP5,probe 213764_s_at,down
same,Fold change MFAP5,probe 213764_s_at,2.112
same,Direction STARD5,probe 213820_s_at,down
same,Fold change STARD5,probe 213820_s_at,3.436
same,Direction SST,probe 213921_at,up
same,Fold change SST,probe 213921_at,4.356
same,Direction PTGER3,probe 213933_at,down
same,Fold change PTGER3,probe 213933_at,13.58
same,Direction COL4A6,probe 213992_at,down
same,Fold change COL4A6,probe 213992_at,4.8
same,Direction S100A8,probe 214370_at,up
same,Fold change S100A8,probe 214370_at,2.98
same,Direction ELL2,probe 214446_at,up
same,Fold change ELL2,probe 214446_at,2.557
same,Direction FN1,probe 214702_at,up
same,Fold change FN1,probe 214702_at,2.71
same,Direction ADAMTS3,probe 214913_at,up
same,Fold change ADAMTS3,probe 214913_at,2.145
same,Direction SOD2,probe 215078_at,up
same,Fold change SOD2,probe 215078_at,5.712
same,Direction KLK10,probe 215808_at,down
same,Fold change KLK10,probe 215808_at,4.673
same,Direction FNDC3A,probe 215910_s_at,up
same,Fold change FNDC3A,probe 215910_s_at,3.663
same,Direction TNC,probe 216005_at,up
same,Fold change TNC,probe 216005_at,2.719
same,Direction MAP3K4,probe 216199_s_at,up
same,Fold change MAP3K4,probe 216199_s_at,2.654
same,Direction NR4A2,probe 216248_s_at,up
same,Fold change NR4A2,probe 216248_s_at,7.592
same,Direction LTB4R,probe 216388_s_at,down
same,Fold change LTB4R,probe 216388_s_at,2.456
same,Direction CCL2,probe 216598_s_at,up
same,Fold change CCL2,probe 216598_s_at,5.407
same,Direction KLK1,probe 216699_s_at,down
same,Fold change KLK1,probe 216699_s_at,2.169
same,Direction NR4A3,probe 216979_at,up
same,Fold change NR4A3,probe 216979_at,7.204
same,Direction NAMPT,probe 217738_at,up
same,Fold change NAMPT,probe 217738_at,2.668
same,Direction TSPAN13,probe 217979_at,down
same,Fold change TSPAN13,probe 217979_at,2.401
same,Direction PHLDA1,probe 217997_at,up
same,Fold change PHLDA1,probe 217997_at,3.409
same,Direction ZC3H12A,probe 218810_at,up
same,Fold change ZC3H12A,probe 218810_at,2.117
same,Direction LASS4,probe 218922_s_at,down
same,Fold change LASS4,probe 218922_s_at,3.028
same,Direction KRT23,probe 218963_s_at,down
same,Fold change KRT23,probe 218963_s_at,10.94
same,Direction IL20RA,probe 219115_s_at,down
same,Fold change IL20RA,probe 219115_s_at,12.07
same,Direction HSPBAP1,probe 219284_at,up
same,Fold change HSPBAP1,probe 219284_at,2.08
same,Direction MREG,probe 219648_at,down
same,Fold change MREG,probe 219648_at,2.887
same,Direction SMPD3,probe 219695_at,down
same,Fold change SMPD3,probe 219695_at,13.66
same,Direction IL23A,probe 220054_at,up
same,Fold change IL23A,probe 220054_at,2.967
same,Direction IL22RA1,probe 220056_at,down
same,Fold change IL22RA1,probe 220056_at,2.023
same,Direction HYAL4,probe 220249_at,down
same,Fold change HYAL4,probe 220249_at,3.117
same,Direction CALML5,probe 220414_at,down
same,Fold change CALML5,probe 220414_at,8.749
same,Direction PSORS1C2,probe 220635_at,down
same,Fold change PSORS1C2,probe 220635_at,19.08
same,Direction IL19,probe 220745_at,up
same,Fold change IL19,probe 220745_at,2.278
same,Direction IL1F7,probe 221470_s_at,down
same,Fold change IL1F7,probe 221470_s_at,100.5
same,Direction GDF15,probe 221577_x_at,up
same,Fold change GDF15,probe 221577_x_at,5.573
same,Direction HSPB8,probe 221667_s_at,down
same,Fold change HSPB8,probe 221667_s_at,4.659
same,Direction HMGCS1,probe 221750_at,down
same,Fold change HMGCS1,probe 221750_at,2.406
same,Direction DNAJC10,probe 221782_at,up
same,Fold change DNAJC10,probe 221782_at,2.553
same,Direction KLF4,probe 221841_s_at,down
same,Fold change KLF4,probe 221841_s_at,2.468
same,Direction CLDN1,probe 222549_at,down
same,Fold change CLDN1,probe 222549_at,7.758
same,Direction HPSE,probe 222881_at,down
same,Fold change HPSE,probe 222881_at,4.194
